The results in this text go back to patent publication US10639306B2, “Aldose reductase inhibitors and uses thereof” (The Trustees of Columbia University in the City of New York, priority 2010, dated 2020).

A short description of series [1]: Solubility in Krebs-Henseleit buffer. The format is physicochemical. To be noted: Krebs-Henseleit buffer with glucose, palmitate, bovine serum albumin, insulin.
The target of series [2] is human recombinant aldose reductase (Homo sapiens, UniProt P15121). The series can be described thus: biochemical. How it is done:
The reductase activity of Compound A and zopolrestat were spectrophotometrically assayed by following the decrease of NADPH at 25° C. for 4 min as described in Sato, S. (1992), “Rat kidney aldose reductase and aldehyde reductase and polyolproduction in rat kidney” Am. J. Physiol. 263, F799.F805, incorporated by reference herein in its entirety.
Briefly, the reaction mixture (total volume 1 ml) contained 0.1 mM NADPH, 100 mM substrate (DL-glyceraldehyde or L-xylose) and human recombinant aldose reductase (100 mU) in 0.1 M phosphate buffer, pH 6.2. The head to head experiment was carried out in a microplate assay for AR inhibition using D-Glyceraldehyde and NADPH and the absorbance changes were monitored at 340 nm and % inhibition was calculated for ARIs at concentrations ranging from 0.1 nM to 100 μM (Table 2 and FIG. 2). Data is presented as mean±standard deviation and is an average of 5 separate runs. The reaction was started by adding the substrate (glyceraldehyde or xylose) as well as the same reaction mixture in which the substrate replaced by deionized water was used as a control. One enzyme unit (U) was defined as the activity consuming 1 μmole of NADPH per min at 25° C.

Series [3] is classed as physicochemical. The conditions noted are these: for Area (integration of absorbance peak): 3 min, pH 7.1. The procedure:
Each sample of Compound A & zopolrestat were placed, separately, in water (MQW ultra nanopure) at ambient temperature and vortexed for 3 minutes. The aliquots were then filtered through a tightly-packed cotton plug (placed in a pipette) to remove any residual solids. The attempted concentrations of the respective solutions of Compound A and zopolrestat made were 0.05 mg/mL, 0.1 mg/mL, 0.5 mg/mL, 1.0 mg/mL, 5.0 mg/mL, and 10.0 mg/mL. The pH of the water used was 7.1 (measured electronically by an Orion perpHect LogR Meter Model #370).
The filtered samples were run through a binary gradient (program: 5%-100% MeCN over 30 mins) on a LC-MS (Shimadzu LCMS-2010A Liquid Chromatography Mass Spectrometer, reverse-phase column). A 5 μL volume of each sample solution was injected for each run. Each trace contained a peak (for Compound A, TR approx. 14.070 mins; for zopolrestat, TR approx. 16.666 mins) measured at a wavelength of 254 nm for which the respective parent ion masses were observed.
By comparing the absorbance areas under the peaks corresponding to Compound A & zopolrestat in each water solution made (Table 1), a solubility curve for each compound was generated (FIG. 1).

Read-outs that look alike come from different tables or passages of the source.

For `O=C(O)Cc1nn(Cc2nc3cc(Cl)ccc3s2)c(=O)c2nccnc12`, the melting point was in the range of 196 to 197 °C.

In the case of `O=C(O)Cc1nn(Cc2nc3cc(C(F)(F)F)ccc3s2)c(=O)c2nccnc12` [Compound A, 2-(8-oxo-7-((5-(trifluoromethyl)benzo[d]thiazol-2-yl)methyl)-7,8-dihydropyrazino[2,3-d]pyridazin-5-yl)acetic acid], the “Solubility in Krebs-Henseleit buffer” value in series [1] is given as “soluble without any precipitation or turbidity”. Moreover, the IC50 in series [2] worked out at 0.0289 nM. In addition, the “Activity relative to zopolrestat in vitro against aldose reductase” value in series [2] (fold more active than zopolrestat) is given as “approximately 100 ×”. Also, the “Solubility in pH 7.1 water relative to Zopolrestat” value in series [3] is on record as “significantly greater solubility”. Besides, the “Area (integration of absorbance peak)” value in series [3] (0.05 mg/mL) is reported as 1811131; in series [3] (0.1 mg/mL), 3221003; in series [3] (0.5 mg/mL), 5814304; in series [3] (1 mg/mL), 10515430; in series [3] (5 mg/mL), 17216187; in series [3] (10 mg/mL), 20397336.

For `O=C(O)Cc1nn(Cc2nc3cc(C(F)(F)F)ccc3s2)c(=O)c2ccccc12` [zopolrestat, reference compound], the “Solubility in Krebs-Henseleit buffer” value in series [1] is given as “heat was applied to render zopolrestat soluble”. In addition, the inhibition at 1 pM in series [2] turned out to be 11%. Further, the inhibition at 10 pM in series [2] was determined as 29%. The “Area (integration of absorbance peak)” value in series [3] (0.05 mg/mL) came out at 1039247; in series [3] (0.1 mg/mL), 1899466; in series [3] (0.5 mg/mL) it was 4304556; in series [3] (1 mg/mL), 6129559; in series [3] (5 mg/mL), 13314544; in series [3] (10 mg/mL), 13362465.

One may read the melting point as the temperature, or range, at which the solid turns liquid. The IC50 is the concentration needed to halve the response being measured. A word on the inhibition: it is the change of the read-out against control, counted positive when it falls.
